Source: US9605064B2, “Methods and compositions for treatment of skin disorders” (AbbVie Biotechnology Ltd, priority 2006, dated 2017)
Where “and” joins values, the source holds several entries; their conditions need not be identical. Equal values may be shown once. Marks after values point to notes of the source that are not given here.

How the values were obtained:
[1] = tested on: patients with severe psoriasis who were non-responders to high-dosage etanercept; assay: ESR and CRP, open-label adalimumab in non-responders to high-dosage etanercept; assay type: in vivo, human; settings: Week 12; individual patients 1-5 (c1-c5); weekly adalimumab
Text: This was an open-label prospective evaluation of adalimumab (HUMIRA®, Abbott Laboratories, Abbott Park, Ill., USA). Patients who were non-responders to etanercept were recruited from the Severe Psoriasis Clinic at St John's Institute of Dermatology in London. […] Inclusion criteria included male and female patients more than 18 years of age with plaque psoriasis (Table 98). The study was approved by St Thomas' Research Ethics Committee, and informed consent was obtained from all participants.

[2] = tested on: patients with moderate to severe psoriasis; assay: PASI 75 response, pooled Phase II (M02-528), CHAMPION and REVEAL by prior systemic therapy; assay type: in vivo, human; settings: for PASI 75 Response: Overall: pooled studies, ITT, missing = nonresponder
Description: For the Phase III studies, study investigators collected patient histories of use of systemic psoriasis treatments over lifetime and response to systemic treatments administered within 12 months of study entry (patient recall of response to treatments administered more than 12 months before enrollment was not collected). For the Phase II study, patient histories of use of systemic treatments for psoriasis administered within 12 months of study entry and response to treatment within 12 months were collected. PASI response rates were assessed through Week 12 for the Phase II study and through Week 16 for the Phase III studies. Intention-to-treat analyses were conducted, with patients with missing PASI responses considered non-responders.

[3] = tested on: patients with chronic plaque psoriasis; assay: Safety, 16-week open-label Phase IIIb trial after suboptimal response to ETN, MTX or NB-UVB
Description: This 16-week, multicenter, open-label, Phase IIIb trial enrolled patients with chronic plaque psoriasis who were having a suboptimal response to ETN (Physician's Global Assessment [PGA]≧mild with months of therapy, or ≧3 months of therapy and deterioration of efficacy), MTX (PGA≧mild with ≧4 months of therapy), or narrow-band ultraviolet B (NB-UVB) phototherapy (PGA moderate with months of therapy). […] The primary endpoint was the proportion of patients who achieved PGA of clear or minimal at week 16. A secondary endpoint was the proportion achieving ≧1 grade of PGA improvement. Safety was assessed throughout the study. Efficacy analyses were intention to treat, with nonresponder imputation used for missing data. Efficacy and safety results were analyzed overall and for each prior-treatment group.

[4] = tested on: adult patients with moderate to severe chronic plaque psoriasis; settings: in vivo
[5] = tested on: patients with moderate to severe chronic plaque psoriasis; assay: DLQI, Phase II 12-week placebo-controlled trial with 48-week extension; assay type: in vivo, human; settings: for Mean change in DLQI from baseline at Week 60: observed values; for DLQI = 0 / DLQI = 1 / DLQI = 2 / DLQI ≧ 3 / patients who achieved DLQI=0: pooled arms
Text: The DLQI is a validated instrument used to measure disease impact on daily function.
The DLQI is a validated instrument used to assess dermatologic-related functional limitations, and was used as the patient related outcomes (PRO) measure. The DLQI consists of ten items and an overall scoring range of 0-30, where higher scores represent greater quality of life impairment and lower scores represent lower quality of life impairment. The DLQI also includes well-established properties of reliability and validity for the DLQI total score in a dermatology setting and measures six subcategories: symptoms and feelings, daily activities, leisure, work/school, personal relationships, and treatment.
Patients who discontinued before the time point were not included in this analysis. Ranges of DLQI scores were evaluated for their correspondence to categories of disease impact and are described below in Table 1.
PROs were assessed using the DLQI. The DLQI is a validated instrument used to assess dermatologic-related functional limitations.

[6] = tested on: patients with severe psoriasis who were non-responders to high-dosage etanercept; assay: Adverse events, open-label adalimumab in non-responders to high-dosage etanercept; assay type: in vivo, human; settings: 12 weeks
Description: Details on clinical course and adverse events were recorded, along with measurements of PASI and Dermatology Life Quality Index (DLQI) at baseline and Weeks 2, 4, 8, and 12.

[7] = tested on: patients with moderate to severe chronic plaque psoriasis; assay: Adverse events, CHAMPION 16-week Phase III trial; settings: 16-week study
Description: The study was a multi-center, 16-week, randomized controlled Phase III trial. The main inclusion criteria included: • Clinical diagnosis of psoriasis for ≧1 year • Affected body surface area (BSA)≧10% • Psoriasis Area and Severity Index (PASI)≧10 The main exclusion criteria was previous use of MTX or systemic anti-TNF therapy.

[8] = tested on: patients with moderate to severe chronic plaque psoriasis; assay: Adverse events, open-label extension of CHAMPION
[9] = PASI 75-99 responders who had DLQI>0 at Week 60
[10] = PASI improvement 50-74 (n = 18), Week 60
[11] = PASI improvement 75-99 (n = 54), Week 60
[12] = PASI improvement 100 (n = 29), Week 60
[13] = PASI improvement <50 (n = 5), Week 60
[14] = patients with PASI 75-99, Week 60
[15] = patients with PASI 100, Week 60
[16] = MTX N = 110, Adalimumab N = 107
[17] = through Week 24 of the OLE (N = 95), AEs occurring ≧5% of patients
[18] = through Week 24 of the OLE (N = 95), MTX patients transitioned to adalimumab 40 mg eow

## Adalimumab: a human anti-TNF mAb, described in U.S. Pat. No. 6,090,382 as D2E7 (HUMIRA, Abbott Laboratories)
[1]
  CRP: 7 mg/L and < 5 mg/L (3×) and recorded/<5 mg/L
  ESR: 13 mm/hr and 12 mm/hr (2×) and 2 mm/hr
[2]; Week 4
  PASI 75 Response: Overall: 19.4%
[2]; Week 12
  PASI 75 Response: Overall: 68.1%
[2]; Week 16, patients with prior lack of response to MTX (N = 32)
  PASI 75 Response: Lack of Response: MTX: 65.6% * (N = 32)
[2]; Week 16, patients with prior lack of response to cyclosporine (N = 7)
  PASI 75 Response: Lack of Response: Cyclosporine: 71.4% (N = 7)
[2]; Week 16, patients with prior lack of response to oral PUVA (N = 6)
  PASI 75 Response: Lack of Response: Oral PUVA: 83.3% (N = 6)
[2]; overall (n=921), Week 16
  PASI 75 response rate: 72.1%
[2]; overall (n=966), Week 4
  PASI 75 response rate: 19.4%
[2]; patients who had failed to respond to systemic therapy (n=152), Week 16
  PASI 75 response rate: 70.4%
[2]; patients who had failed to respond to systemic therapy (n=160), Week 4
  PASI 75 response rate: 15.6%
[2]; patients who had received systemic therapies (n=491), Week 16
  PASI 75 response rate: 72.7%
[2]; patients who had received systemic therapies (n=511), Week 4
  PASI 75 response rate: 21.7%
[3]; 16-week trial
  malignancies: no malignancies were reported
[3]; all patients (2 MTX, 2 ETN)
  patients with >25% worsening in PASI scores: 2.6%
[4]
  Infectious AEs, percentage: 28.9‡ %
  Upper Respiratory Tract Infection: 59 (7.2) n (%)
[5]; 40 mg eow, week 12
  patients with change from large/extremely large DLQI impact at baseline to no/small impact: 85%
[5]; 40 mg eow, week 24
  patients with change from large/extremely large DLQI impact at baseline to no/small impact: 85%
[5]; 40 mg eow, week 36
  patients with change from large/extremely large DLQI impact at baseline to no/small impact: 83%
[5]; 40 mg eow, week 60
  patients with change from large/extremely large DLQI impact at baseline to no/small impact: 83%
[5]; 40 mg weekly, Week 12
  mean change in DLQI: −11.5*
  patients with change from large/extremely large DLQI impact at baseline to no/small impact: 86%
[5]; 40 mg weekly, week 24
  patients with change from large/extremely large DLQI impact at baseline to no/small impact: 88%
[5]; 40 mg weekly, week 36
  patients with change from large/extremely large DLQI impact at baseline to no/small impact: 91%
[5]; 40 mg weekly, week 60
  patients with change from large/extremely large DLQI impact at baseline to no/small impact: 100%
[5]; PASI 50-74
  Mean change in DLQI from baseline at Week 60: −8.8
[5]; PASI 75-99
  Mean change in DLQI from baseline at Week 60: −11.5
[5]; [9]
  embarrassment/self-consciousness because of skin condition: approximately 20%
  persistent symptoms of itching, soreness, pain, or stinging of the skin: approximately 50%
[5]; PASI 100
  Mean change in DLQI from baseline at Week 60: −11.1
[5]; PASI <50
  Mean change in DLQI from baseline at Week 60: −6.0
[5]; [10]
  DLQI = 0: 5 (28) n (%)
  DLQI = 1: 3 (17) n (%)
  DLQI = 2: 3 (17) n (%)
  DLQI ≧ 3: 7 (39) n (%)
[5]; [11]
  DLQI = 0: 20 (37) n (%)
  DLQI = 1: 19 (35) n (%)
  DLQI = 2: 4 (7) n (%)
  DLQI ≧ 3: 11 (20) n (%)
[5]; [12]
  DLQI = 0: 23 (79) n (%)
  DLQI = 1: 3 (10) n (%)
  DLQI = 2: 3 (10) n (%)
  DLQI ≧ 3: 0 (0) n (%)
[5]; [13]
  DLQI = 0: 0 (0) n (%)
  DLQI = 1: 1 (20.0) n (%)
  DLQI = 2: 2 (40) n (%)
  DLQI ≧ 3: 2 (40) n (%)
[5]; adalimumab-treated patients
  mean change in DLQI: ≥ 10 points
[5]; baseline PASI ≧10 and DLQI >10, 40 mg eow, Week 12
  DLQI mean change from baseline: −15
[5]; baseline PASI ≧10 and DLQI >10, 40 mg eow, Week 24
  DLQI mean change from baseline: −14
[5]; baseline PASI ≧10 and DLQI >10, 40 mg eow, Week 36
  DLQI mean change from baseline: −15
[5]; baseline PASI ≧10 and DLQI >10, 40 mg eow, Week 60
  DLQI mean change from baseline: −15
[5]; baseline PASI ≧10 and DLQI >10, 40 mg weekly, Week 12
  DLQI mean change from baseline: −16
[5]; baseline PASI ≧10 and DLQI >10, 40 mg weekly, Week 24
  DLQI mean change from baseline: −17
[5]; baseline PASI ≧10 and DLQI >10, 40 mg weekly, Week 36
  DLQI mean change from baseline: −18
[5]; baseline PASI ≧10 and DLQI >10, 40 mg weekly, Week 60
  DLQI mean change from baseline: −17
[5]; baseline PASI ≧10 and DLQI >10, placebo/adalimumab 40 mg eow, Week 24
  DLQI mean change from baseline: −12
[5]; baseline PASI ≧10 and DLQI >10, placebo/adalimumab 40 mg eow, Week 36
  DLQI mean change from baseline: −14
[5]; baseline PASI ≧10 and DLQI >10, placebo/adalimumab 40 mg eow, Week 60
  DLQI mean change from baseline: −12
[5]; baseline PASI ≧10 and DLQI >10, weekly, Week 60
  mean DLQI score: 0.7
[5]; from dosage escalation to Week 60, 18 of the 30 patients who switched to weekly dosing
  Mean improvement in DLQI: 2.1
[5]; of the total 106 patients receiving adalimumab at Week 60
  patients who achieved DLQI=0: 48 patients
[5]; patients receiving adalimumab at Week 60
  patients who achieved DLQI=0: approximately 45%
[5]; patients with 50-74, Week 60
  patients who achieved a DLQI=0: 28%
[5]; patients with PASI 50-74, Week 60
  mean change in DLQI from baseline: −8
[5]; [14]
  mean change in DLQI from baseline: −11.5
  patients who achieved a DLQI=0: 37%
[5]; [15]
  mean change in DLQI from baseline: −11.1
  patients who achieved a DLQI=0: 79%
[5]; patients with PASI<50, Week 60
  mean change in DLQI from baseline: −6
[5]; placebo patients switched to adalimumab at week 12, week 24
  patients with change from large/extremely large DLQI impact at baseline to no/small impact: 67%
[5]; placebo patients switched to adalimumab at week 12, week 36
  patients with change from large/extremely large DLQI impact at baseline to no/small impact: 79%
[5]; placebo patients switched to adalimumab at week 12, week 60
  patients with change from large/extremely large DLQI impact at baseline to no/small impact: 71%
[5]; randomized to adalimumab, week 12
  patients with change from large/extremely large DLQI impact at baseline to no/small impact: 85%
[6]
  Serious Adverse Events: No serious adverse events were reported
[7]; [16]
  Any AE: 79 (74) n (%)
  Any AE leading to discontinuation: 1 (1) n (%)
  Any SAE: 2 (2) n (%)
[7]; common AE in ≧5% of patients
  Arthralgia: 6 (6) n (%)
  Gamma-Glutamyltransferase Increased: 2 (2) n (%)
  Headache: 14 (13) n (%)
  Nasopharyngitis: 30 (28) n (%)
  Nausea: 4 (4) n (%)
  Pruritus: 4 (4) n (%)
  Rhinitis: 3 (3) n (%)
  Rhinorrhea: 3 (3) n (%)
  Viral Infection: 0 (0) n (%)
[8]; first 24 weeks of the OLE
  rebound: No cases of rebound were observed
[8]; [17]
  Injection-site reaction, Percentage of Patients: 5%
  Nasopharyngitis, Percentage of Patients: 6%
[8]; [18]
  AEs leading to withdrawal, Percentage of Patients: 1%
  Any AE, Percentage of Patients: 47%
  Any malignancy, Percentage of Patients: 0%
  Rebound psoriasis, Percentage of Patients: 0%
  Serious AE, Percentage of Patients: 5%
